± gives the expanded uncertainty stated by the source.
Conditions: Liquid, Vibrating tube method

CCO [ethanol]
Conditions	mass density [kg/m3]
288.15 K, 100 kPa	793.7 ± 1.7
288.15 K, 1000 kPa	794.4 ± 1.7
288.15 K, 5000 kPa	797.6 ± 1.7
288.15 K, 10000 kPa	801.5 ± 1.7
288.15 K, 15000 kPa	805.3 ± 1.7
288.15 K, 20000 kPa	808.9 ± 1.7
288.15 K, 25000 kPa	812.4 ± 1.7
288.15 K, 30000 kPa	815.7 ± 1.7
288.15 K, 35000 kPa	819 ± 1.7
288.15 K, 40000 kPa	822.1 ± 1.7
288.15 K, 45000 kPa	825.1 ± 1.7
288.15 K, 50000 kPa	828 ± 1.7
288.15 K, 55000 kPa	830.7 ± 1.8
288.15 K, 60000 kPa	833.3 ± 1.8
293.15 K, 100 kPa	789.4 ± 1.7
293.15 K, 1000 kPa	790.2 ± 1.7
293.15 K, 5000 kPa	793.5 ± 1.7
293.15 K, 10000 kPa	797.4 ± 1.7
293.15 K, 15000 kPa	801.3 ± 1.7
293.15 K, 20000 kPa	805 ± 1.7
293.15 K, 25000 kPa	808.6 ± 1.7
293.15 K, 30000 kPa	812 ± 1.7
293.15 K, 35000 kPa	815.3 ± 1.7
293.15 K, 40000 kPa	818.5 ± 1.7
293.15 K, 45000 kPa	821.5 ± 1.7
293.15 K, 50000 kPa	824.5 ± 1.7
293.15 K, 55000 kPa	827.2 ± 1.8
293.15 K, 60000 kPa	829.9 ± 1.8
298.15 K, 100 kPa	785.2 ± 1.7
298.15 K, 1000 kPa	785.9 ± 1.7
298.15 K, 5000 kPa	789.3 ± 1.7
298.15 K, 10000 kPa	793.4 ± 1.7
298.15 K, 15000 kPa	797.3 ± 1.7
298.15 K, 20000 kPa	801.1 ± 1.7
298.15 K, 25000 kPa	804.8 ± 1.7
298.15 K, 30000 kPa	808.3 ± 1.7
298.15 K, 35000 kPa	811.7 ± 1.7
298.15 K, 40000 kPa	814.9 ± 1.7
298.15 K, 45000 kPa	818 ± 1.7
298.15 K, 50000 kPa	821 ± 1.8
298.15 K, 55000 kPa	823.8 ± 1.8
298.15 K, 60000 kPa	826.5 ± 1.8
303.15 K, 100 kPa	780.9 ± 1.7
303.15 K, 101 kPa	780.83 ± 0.15
303.15 K, 1000 kPa	781.6 ± 1.7
303.15 K, 5000 kPa	785.1 ± 1.7
303.15 K, 10000 kPa	789.3 ± 1.7
303.15 K, 15000 kPa	793.3 ± 1.7
303.15 K, 20000 kPa	797.2 ± 1.7
303.15 K, 25000 kPa	801 ± 1.7
303.15 K, 30000 kPa	804.6 ± 1.7
303.15 K, 35000 kPa	808 ± 1.7
303.15 K, 40000 kPa	811.3 ± 1.7
303.15 K, 45000 kPa	814.5 ± 1.7
303.15 K, 50000 kPa	817.5 ± 1.8
303.15 K, 55000 kPa	820.3 ± 1.8
303.15 K, 60000 kPa	823.1 ± 1.8
308.15 K, 100 kPa	776.5 ± 1.7
308.15 K, 1000 kPa	777.3 ± 1.7
308.15 K, 5000 kPa	780.9 ± 1.7
308.15 K, 10000 kPa	785.2 ± 1.7
308.15 K, 15000 kPa	789.3 ± 1.7
308.15 K, 20000 kPa	793.3 ± 1.7
308.15 K, 25000 kPa	797.1 ± 1.7
308.15 K, 30000 kPa	800.8 ± 1.7
308.15 K, 35000 kPa	804.3 ± 1.7
308.15 K, 40000 kPa	807.7 ± 1.7
308.15 K, 45000 kPa	810.9 ± 1.7
308.15 K, 50000 kPa	814 ± 1.8
308.15 K, 55000 kPa	816.9 ± 1.8
308.15 K, 60000 kPa	819.6 ± 1.8
313.15 K, 100 kPa	772.1 ± 1.7
313.15 K, 101 kPa	772.1 ± 0.15
313.15 K, 1000 kPa	773 ± 1.7
313.15 K, 5000 kPa	776.6 ± 1.7
313.15 K, 10000 kPa	781 ± 1.7
313.15 K, 15000 kPa	785.3 ± 1.7
313.15 K, 20000 kPa	789.4 ± 1.7
313.15 K, 25000 kPa	793.3 ± 1.7
313.15 K, 30000 kPa	797 ± 1.7
313.15 K, 35000 kPa	800.6 ± 1.7
313.15 K, 40000 kPa	804.1 ± 1.7
313.15 K, 45000 kPa	807.4 ± 1.7
313.15 K, 50000 kPa	810.5 ± 1.8
313.15 K, 55000 kPa	813.4 ± 1.8
313.15 K, 60000 kPa	816.2 ± 1.8
318.15 K, 100 kPa	767.7 ± 1.7
318.15 K, 1000 kPa	768.5 ± 1.7
318.15 K, 5000 kPa	772.3 ± 1.7
318.15 K, 10000 kPa	776.8 ± 1.7
318.15 K, 15000 kPa	781.2 ± 1.7
318.15 K, 20000 kPa	785.4 ± 1.7
318.15 K, 25000 kPa	789.4 ± 1.7
318.15 K, 30000 kPa	793.2 ± 1.7
318.15 K, 35000 kPa	796.9 ± 1.7
318.15 K, 40000 kPa	800.4 ± 1.7
318.15 K, 45000 kPa	803.8 ± 1.8
318.15 K, 50000 kPa	806.9 ± 1.8
318.15 K, 55000 kPa	809.9 ± 1.8
318.15 K, 60000 kPa	812.8 ± 1.8
323.15 K, 100 kPa	763.2 ± 1.7
323.15 K, 101 kPa	763.22 ± 0.15
323.15 K, 1000 kPa	764.1 ± 1.7
323.15 K, 5000 kPa	768 ± 1.7
323.15 K, 10000 kPa	772.6 ± 1.7
323.15 K, 15000 kPa	777.1 ± 1.7
323.15 K, 20000 kPa	781.4 ± 1.7
323.15 K, 25000 kPa	785.5 ± 1.7
323.15 K, 30000 kPa	789.4 ± 1.7
323.15 K, 35000 kPa	793.2 ± 1.7
323.15 K, 40000 kPa	796.8 ± 1.7
323.15 K, 45000 kPa	800.2 ± 1.8
323.15 K, 50000 kPa	803.4 ± 1.8
323.15 K, 55000 kPa	806.5 ± 1.8
323.15 K, 60000 kPa	809.3 ± 1.8
328.15 K, 100 kPa	758.7 ± 1.7
328.15 K, 1000 kPa	759.6 ± 1.7
328.15 K, 5000 kPa	763.6 ± 1.7
328.15 K, 10000 kPa	768.3 ± 1.7
328.15 K, 15000 kPa	772.9 ± 1.7
328.15 K, 20000 kPa	777.3 ± 1.7
328.15 K, 25000 kPa	781.6 ± 1.7
328.15 K, 30000 kPa	785.6 ± 1.7
328.15 K, 35000 kPa	789.5 ± 1.7
328.15 K, 40000 kPa	793.1 ± 1.7
328.15 K, 45000 kPa	796.6 ± 1.8
328.15 K, 50000 kPa	799.9 ± 1.8
328.15 K, 55000 kPa	803 ± 1.8
328.15 K, 60000 kPa	805.9 ± 1.8
333.15 K, 100 kPa	754.1 ± 1.7
333.15 K, 1000 kPa	755 ± 1.7
333.15 K, 5000 kPa	759.1 ± 1.7
333.15 K, 10000 kPa	764 ± 1.7
333.15 K, 15000 kPa	768.8 ± 1.7
333.15 K, 20000 kPa	773.3 ± 1.7
333.15 K, 25000 kPa	777.6 ± 1.7
333.15 K, 30000 kPa	781.7 ± 1.7
333.15 K, 35000 kPa	785.7 ± 1.7
333.15 K, 40000 kPa	789.4 ± 1.7
333.15 K, 45000 kPa	792.9 ± 1.8
333.15 K, 50000 kPa	796.3 ± 1.8
333.15 K, 55000 kPa	799.4 ± 1.8
333.15 K, 60000 kPa	802.4 ± 1.8
343.15 K, 100 kPa	744.6 ± 1.7
343.15 K, 1000 kPa	745.6 ± 1.7
343.15 K, 5000 kPa	750 ± 1.7
343.15 K, 10000 kPa	755.2 ± 1.7
343.15 K, 15000 kPa	760.2 ± 1.7
343.15 K, 20000 kPa	765 ± 1.7
343.15 K, 25000 kPa	769.6 ± 1.7
343.15 K, 30000 kPa	773.9 ± 1.7
343.15 K, 35000 kPa	778 ± 1.7
343.15 K, 40000 kPa	781.9 ± 1.8
343.15 K, 45000 kPa	785.6 ± 1.8
343.15 K, 50000 kPa	789.1 ± 1.8
343.15 K, 55000 kPa	792.3 ± 1.8
343.15 K, 60000 kPa	795.3 ± 1.8
353.15 K, 1000 kPa	736 ± 1.7
353.15 K, 5000 kPa	740.6 ± 1.7
353.15 K, 10000 kPa	746.2 ± 1.7
353.15 K, 15000 kPa	751.5 ± 1.7
353.15 K, 20000 kPa	756.5 ± 1.7
353.15 K, 25000 kPa	761.3 ± 1.7
353.15 K, 30000 kPa	765.9 ± 1.7
353.15 K, 35000 kPa	770.2 ± 1.7
353.15 K, 40000 kPa	774.3 ± 1.8
353.15 K, 45000 kPa	778.1 ± 1.8
353.15 K, 50000 kPa	781.7 ± 1.8
353.15 K, 55000 kPa	785.1 ± 1.8
353.15 K, 60000 kPa	788.2 ± 1.8
363.15 K, 1000 kPa	725.9 ± 1.7
363.15 K, 5000 kPa	730.8 ± 1.7
363.15 K, 10000 kPa	736.7 ± 1.7
363.15 K, 15000 kPa	742.4 ± 1.7
363.15 K, 20000 kPa	747.7 ± 1.7
363.15 K, 25000 kPa	752.8 ± 1.7
363.15 K, 30000 kPa	757.7 ± 1.7
363.15 K, 35000 kPa	762.2 ± 1.8
363.15 K, 40000 kPa	766.5 ± 1.8
363.15 K, 45000 kPa	770.5 ± 1.8
363.15 K, 50000 kPa	774.3 ± 1.8
363.15 K, 55000 kPa	777.7 ± 1.8
363.15 K, 60000 kPa	780.9 ± 1.8
373.15 K, 1000 kPa	715.3 ± 2.7
373.15 K, 5000 kPa	720.6 ± 2.7
373.15 K, 10000 kPa	727 ± 2.7
373.15 K, 15000 kPa	733 ± 2.7
373.15 K, 20000 kPa	738.7 ± 2.7
373.15 K, 25000 kPa	744.2 ± 2.7
373.15 K, 30000 kPa	749.3 ± 2.7
373.15 K, 35000 kPa	754.1 ± 2.7
373.15 K, 40000 kPa	758.6 ± 2.7
373.15 K, 45000 kPa	762.8 ± 2.7
373.15 K, 50000 kPa	766.7 ± 2.8
373.15 K, 55000 kPa	770.2 ± 2.8
373.15 K, 60000 kPa	773.5 ± 2.8
393.15 K, 1000 kPa	692.2 ± 2.7
393.15 K, 5000 kPa	698.4 ± 2.7
393.15 K, 10000 kPa	705.8 ± 2.7
393.15 K, 15000 kPa	712.8 ± 2.7
393.15 K, 20000 kPa	719.4 ± 2.7
393.15 K, 25000 kPa	725.6 ± 2.7
393.15 K, 30000 kPa	731.4 ± 2.7
393.15 K, 35000 kPa	736.8 ± 2.7
393.15 K, 40000 kPa	741.8 ± 2.7
393.15 K, 45000 kPa	746.4 ± 2.8
393.15 K, 50000 kPa	750.7 ± 2.8
393.15 K, 55000 kPa	754.5 ± 2.8
393.15 K, 60000 kPa	757.9 ± 2.8
413.15 K, 1000 kPa	666.3 ± 2.7
413.15 K, 5000 kPa	673.6 ± 2.7
413.15 K, 10000 kPa	682.3 ± 2.7
413.15 K, 15000 kPa	690.5 ± 2.7
413.15 K, 20000 kPa	698.1 ± 2.7
413.15 K, 25000 kPa	705.3 ± 2.7
413.15 K, 30000 kPa	712 ± 2.7
413.15 K, 35000 kPa	718.2 ± 2.7
413.15 K, 40000 kPa	723.8 ± 2.8
413.15 K, 45000 kPa	729 ± 2.8
413.15 K, 50000 kPa	733.7 ± 2.8
413.15 K, 55000 kPa	737.9 ± 2.8
413.15 K, 60000 kPa	741.5 ± 2.8

— the NIST ThermoML archive (doi:10.1016/j.jct.2016.04.014)
